Data on four molecules can be found in PMC7570662, “In Vivo Pharmacokinetic Analysis Utilizing Non-Targeted and Targeted Mass Spectrometry and In Vitro Assay against Transient Receptor Potential Channels of Maobushisaishinto and Its Constituent Asiasari Radix” (Molecules, 2020).

Series [1] has as its system LPS-induced NO production in RAW264.7 cells. The series can be described thus: LPS-induced NO production in RAW264.7 cells (Griess method). It counts as cell-based, mouse. The note with it: LPS 3 µg/mL, 24 h, mean of two experiments. As to the method:
The experimental methods and results about the measurement of extracellular NO production are described as following.
Mouse macrophage-like RAW264. 7 cells were obtained from the European Collection of Authenticated Cell Cultures and cultured in Dulbecco’s Modified Eagle Medium (DMEM) containing 10% fetal bovine serum (FBS). The cells were maintained at 37 °C in a humidified incubator with an […]
RAW264. 7 cells were seeded in 48-well plates (6.0 × 10^4 cells per well) and incubated overnight, and then, 1 or 10 µmol/L of test compounds and 3 µg/mL of lipopolysaccharide (LPS; from Escherichia coli 0111: B4, L3024; Sigma-Aldrich) were added into the medium. Following 24 h after addition, 100 µL of conditioned media were collected and mixed with equal volume of Griess reagent (G4410; Sigma-Aldrich), and the mixture was incubated at room temperature for 15 min. Finally, absorbance was determined at 540 nm wave. Nitrite concentrations were quantified using a calibration curve obtained from a dilute solution of NaNO2. […]
production at concentrations of 1 or 10 µmol/L.
Table S3. Effect of Asiasari Radix ingredients on LPS -induced NO production.
Test Compound (% of LPS Control)
Amide A: (2E,4E,8Z,10E)-N-isobutyl-2,4,8,10-dodecatetraenamide. Each test compound (1 or 10 µmol/L) and lipopolysaccharide (LPS, 3 µg/mL) were added into a culture of RAW264. 7 cells. Following 24 h of substance addition, nitric oxide (NO) released in the cell medium was measured by Griess method. Percentage of NO production was calculated using the following equation: (nitrite concentration after treatment with test compound and LPS/nitrite concentration after treatment with LPS only) × 100. Each value represents the mean of two independent experiments
On the technique in general: Griess reagent forms a coloured azo dye with nitrite.

The nature of series [2]: Quantitative targeted LC-MS/MS pharmacokinetics of AR ingredients in rat plasma after oral MBST. Type of series: in vivo. On the procedure:
Seven-week-old male Sprague-Dawley rats were purchased from Charles River Laboratories (Yokohama, Japan) and Japan SLC (Hamamatsu, Japan). The animals were housed under a temperature of 23 °C ± 3 °C and relative humidity of 50% ± 20%, with 12-h/12-h light/dark cycle and allowed free access to water and standard laboratory food (MF, Oriental Yeast Co., Ltd., Tokyo, Japan). The animals were used in experiments following habituation for several days.
Extract powders of AR or MBST were suspended in distilled water and orally administered to rats having fasted for approximately 16 h. The dose of AR was set at 2 g/kg, and the MBST doses were set at 1 and 2 g/kg. 1 g/kg MBST contained 578 µg/kg, 147 µg/kg, 226 µg/kg, 426 µg/kg asarinin, sesamin, methyl kakuol, and amide A, respectively. The doses were chosen based on a previous pharmacological study of MBST using rats.
Blood samples were centrifuged at 1700× g at 4 °C for 15 min to obtain plasma, of which samples were then stored at ≤−75 °C until analysis.
To quantify the plasma concentration of the AR components identified by the non-targeted analysis, the plasma samples at 0–24 h after MBST administration (1 or 2 g/kg) were supplied to targeted LC-MS/MS analysis in SRM mode with electrospray ionization.
For the quantification of methyl kakuol, amide A, asarinin, and sesamin in plasma, 100 µL of MBST-treated rat plasma was mixed with 20 µL of methanol (as the vehicle of the working solution described below) and 20 µL of internal standard niflumic acid (2 or 20 ng/mL). To prepare the calibration curve, the same volumes of blank plasma and various concentrations of working solution (final plasma concentration, 0.02–200 ng/mL) were used instead of the MBST-treated rat plasma and methanol. Finally, 500 µL of methanol was added for deproteinization. The mixture was centrifuged at 7000× g at 4 °C for 5 min. The supernatant was dried using a centrifugal evaporator. The dried residue was dissolved in 60 or 80 μL of the initial LC mobile phase which was composed of 5 mmol/L ammonium acetate in water/methanol (70/30, v/v), and then, a 5 or 10 μL aliquot was injected into the LC-MS/MS system. The injected sample was chromatographically separated using a YMC-Pack ODS-AQ column (2.0 ×150 mm I.D., 3-μm particle size; GL Sciences, Tokyo, Japan) at 30 °C. The mobile phase consisted of solution A (5 mmol/L ammonium acetate) as well as solution B (methanol), with a gradient of solution B (30%, 0 min; 70%, 25 min; 95%, 25.01–30 min; 30%, 30.01–35 min; v/v) at a flow rate of 0.3 mL/min. In brief, the compounds were analyzed using optimal MS/MS parameters as follows: methyl kakuol (m/z 209.056/176.1), amide A (m/z 248.174/57.1), asarinin (m/z 372.123/173.1), and sesamin (m/z 372.118/233.1). The calibration ranges for methyl kakuol, amide A, asarinin, and sesamin were 0.5–100 ng/mL, 0.5–200 ng/mL, 0.1–200 ng/mL, 0.1–200 ng/mL, respectively.
The AR ingredient levels in the plasma are presented as the mean + standard deviation. Pharmacokinetic parameters of plasma AR ingredients, such as the Cmax, AUC0-last, were calculated by non-compartmental analysis using the Phoenix WinNonlin software (Certara L.P., St. Louis, MO, USA). The concentration data were pooled per each time point; then, the mean concentration–time data were subjected to the non-compartmental analysis.

The mark [3] stands for this setting: male, Sprague-Dawley, rat, in vivo, po, 1 g/kg.
The mark [4] stands for this setting: male, Sprague-Dawley, rat, in vivo, po, 2 g/kg.

Structures are written as SMILES. Where two headings read alike, the source gives them in different places.

On to `C/C=C/C=C\CC/C=C/C=C/C(=O)NCC(C)C` [Amide A, (2E,4E,8Z,10E)-N-isobutyl-2,4,8,10-dodecatetraenamide], for which the “NO Production (% of LPS Control)” value is on record as 92 % of LPS Control in series [1] (1 µmol/L test compound) and 82 % of LPS Control in series [1] (10 µmol/L test compound). For the same molecule, the AUC(0-t) worked out at 4.87 ng·h/mL in series [2] (male, Sprague-Dawley, rat plasma, oral MBST 1 g/kg, read-out: AUC0-last) and 18.4 ng·h/mL in series [2] (male, Sprague-Dawley, rat plasma, oral MBST 2 g/kg, read-out: AUC0-last). For the same molecule, the Cmax (as a rule, the maximum level reached in the sampled fluid or tissue) in series [2] (male, Sprague-Dawley, rat plasma, oral MBST 1 g/kg, read-out: Cmax) is 4.08 ng/mL; in series [2] (male, Sprague-Dawley, rat plasma, oral MBST 2 g/kg, read-out: Cmax), 6.07 ng/mL. Besides, the k el in series [2] (male, Sprague-Dawley, rat plasma, oral MBST 1 g/kg, read-out: kel (converted)) was 0.000211 s⁻¹; in series [2] (male, Sprague-Dawley, rat plasma, oral MBST 2 g/kg, read-out: kel (converted)), 6.58e-05 s⁻¹. Besides, the half-life was 54.7 min in series [2] (male, Sprague-Dawley, rat plasma, oral MBST 1 g/kg, read-out: t1/2 (converted)) and 175 min in series [2] (male, Sprague-Dawley, rat plasma, oral MBST 2 g/kg, read-out: t1/2 (converted)). Besides, the time to peak (Tmax) (as a rule, the time from dosing to the highest level) in series [2] (male, Sprague-Dawley, rat plasma, oral MBST 1 g/kg, read-out: tmax) amounted to 30 min; in series [2] (male, Sprague-Dawley, rat plasma, oral MBST 2 g/kg, read-out: tmax), 15 min.

Take `c1cc2c(cc1[C@H]1OC[C@H]3[C@@H]1CO[C@H]3c1ccc3c(c1)OCO3)OCO2` [Asarinin, (−)-Asarinin]: the “NO Production (% of LPS Control)” value in series [1] (1 µmol/L test compound) is recorded as 99 % of LPS Control. Also, the “NO Production (% of LPS Control)” value in series [1] (10 µmol/L test compound) was 97 % of LPS Control. In series [2] (setting [3]), the AUC(0-t) turned out to be 16.3 ng·h/mL, the highest level (Cmax) was 8.42 ng/mL, the Tmax is 15 min and the half-life is 91.2 min. In series [2] (setting [3]), this molecule showed a k el of 0.000127 s⁻¹. Further, in series [2] (setting [4]), the AUC(0-t) is 38.6 ng·h/mL, the concentration peaked (Cmax) at 14.7 ng/mL, the Tmax turned out to be 15 min and the half-life is 176 min. This molecule had a k el in series [2] (setting [4]) of 6.58e-05 s⁻¹.

On to `c1cc2c(cc1[C@H]1OC[C@H]3[C@@H]1CO[C@@H]3c1ccc3c(c1)OCO3)OCO2` [Sesamin], for which, in series [1] (1 µmol/L test compound), the “NO Production (% of LPS Control)” value was 96 % of LPS Control. Besides, the “NO Production (% of LPS Control)” value in series [1] (10 µmol/L test compound) is given as 78 % of LPS Control. Also, in series [2] (setting [3]), the AUC(0-t) turned out to be 11.9 ng·h/mL, the highest level (Cmax) was 5.63 ng/mL, the Tmax was 30 min and the half-life was 97.8 min. The same molecule had a k el in series [2] (setting [3]) of 0.000118 s⁻¹. In series [2] (setting [4]), the AUC(0-t) came out at 28.7 ng·h/mL, the Cmax was found to be 9.44 ng/mL, the Tmax came to 15 min and the half-life is 179 min. This molecule also gave a k el in series [2] (setting [4]) of 6.44e-05 s⁻¹.

As for `CCC(=O)c1cc2c(cc1OC)OCO2` [Methyl kakuol], the “NO Production (% of LPS Control)” value in series [1] (1 µmol/L test compound) is on record as 102 % of LPS Control. The “NO Production (% of LPS Control)” value in series [1] (10 µmol/L test compound) is listed as 93 % of LPS Control. In series [2] (rat plasma, oral MBST 1 g/kg), the AUC0-last was found to be 22.5 ng·h/mL, the Cmax came to 26.7 ng/mL, the Tmax is 30 min and the k el turned out to be 0.000425 s⁻¹. The t1/2 in series [2] (rat plasma, oral MBST 1 g/kg) turned out to be 27.1 min. Also, in series [2] (rat plasma, oral MBST 2 g/kg), the AUC0-last is 214 ng·h/mL, the Cmax came out at 98.2 ng/mL, the Tmax was determined as 60 min and the k el was 0.000153 s⁻¹. The molecule also displayed a t1/2 in series [2] (rat plasma, oral MBST 2 g/kg) of 75.6 min.
